These results are taken from patent publication US9718790B2, “Triazine derivative and pharmaceutical composition having an analgesic activity comprising the same” (SHIONOGI & CO., LTD., priority 2010, dated 2017).

The IC50 is the midpoint of a concentration-inhibition curve.

The target in one experiment is human P2X3 receptor (Homo sapiens (Human), UniProt P56373). The experiment can be described thus: Evaluation of human P2X3 receptor inhibitory activity (Fluo-3 calcium fluorescence, FDSS 3000, ATP stimulation).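 Note: stimulus was 50 nM ATP with fluorescence followed for 3 min, and the response per well was peak post-ATP fluorescence divided by the reading at measurement start.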 The conditions noted are these: C6BU-1 cells stably expressing human P2X3 receptor. The experiment is classed as cell-based.
Sequence of human P2X3 receptor (P56373 whole entry): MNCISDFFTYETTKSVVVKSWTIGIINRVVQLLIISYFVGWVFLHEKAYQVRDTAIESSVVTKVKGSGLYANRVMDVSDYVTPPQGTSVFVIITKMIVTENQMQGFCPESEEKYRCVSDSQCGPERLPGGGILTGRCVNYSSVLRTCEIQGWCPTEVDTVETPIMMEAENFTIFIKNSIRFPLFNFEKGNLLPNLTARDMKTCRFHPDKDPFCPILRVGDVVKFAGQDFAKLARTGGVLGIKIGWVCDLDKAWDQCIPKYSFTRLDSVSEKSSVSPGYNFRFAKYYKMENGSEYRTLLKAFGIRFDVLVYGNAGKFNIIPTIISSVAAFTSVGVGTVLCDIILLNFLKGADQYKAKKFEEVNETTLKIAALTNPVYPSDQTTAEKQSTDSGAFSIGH
`Cc1ccc(Cn2c(=O)n(C[C@H](C)C(=O)O)c(=O)[nH]/c2=N\c2ccc(NC(=O)C(C)C)c(Cl)c2)cc1` [Compound I-1420]: the 50% inhibitory concentration (IC50) is 607 nM.
Still for that read-out and setting: the same measure for `COC(=O)NCCCn1c(=O)[nH]/c(=N\c2ccc(OC(C)C)c(F)c2)n(Cc2ccc(Cl)cc2)c1=O` [Compound I-0608]: 6 nM; for `CCOC(=O)CCCn1c(=O)[nH]/c(=N\c2ccc(Oc3ccc(C)nc3)cc2)n(Cc2ccc(C)cc2)c1=O` [Compound I-1369]: 3 nM; for `CCn1c(=O)[nH]/c(=N\c2ccc(Oc3ccc(C(=O)O)cc3)cc2)n(Cc2ccc(C)cc2)c1=O` [Compound I-2035]: 22 nM.
Take `COC(=O)[C@@H](C)Cn1c(=O)[nH]/c(=N\c2ccc(C3CC3)cc2)n(Cc2ccc(C)cc2)c1=O` [Compound I-1460]: the concentration for half-maximal inhibition (IC50) stood at 272 nM.
The same measure, in the same setting: the value for `Cc1ccc(Cn2c(=O)n(C[C@H](C)C(=O)O)c(=O)[nH]/c2=N\c2cnc(Oc3ccccc3)c(Cl)c2)cc1` [Compound I-1476] was 262 nM; that for `Cc1ccc(Cn2c(=O)n([C@H](C)[C@H](C)C(=O)O)c(=O)[nH]/c2=N\c2ccc(OC3CCC3)cc2)cc1` [Compound I-1457] was 14 nM.
The same measure, in the same setting: the value for `COC(=O)[C@H](C)[C@H](C)n1c(=O)[nH]/c(=N\c2ccc(OCC(C)C)cc2)n(Cc2ccc(Cl)cc2)c1=O` [Compound I-1329] was 49 nM; that for `CC(C)=Cc1ccc(/N=c2\[nH]c(=O)n(C[C@H](C)C(=O)O)c(=O)n2Cc2ccc(C)cc2)cn1` [Compound I-1304] was 574 nM.
The same measure, in the same setting: the value for `Cn1c(=O)[nH]/c(=N\c2ccc(Oc3ccnc(CO)c3)cc2)n(Cc2ccc(Cl)cc2)c1=O` [Compound I-2018] was 22 nM; that for `COC(=O)[C@@H](C)Cn1c(=O)[nH]/c(=N\c2ccc(CC(C)C)c(Cl)c2)n(Cc2ccc(C)nc2)c1=O` [Compound I-1464] was 70 nM; that for `COC(=O)C(C)(C)Cn1c(=O)[nH]/c(=N\c2ccc(OC(C)C)c(OC)c2)n(Cc2ccc(C)cc2)c1=O` [Compound I-1272] was 7 nM.
`COC(=O)[C@H](C)[C@H](C)n1c(=O)[nH]/c(=N\c2ccc(OCC(C)C)cc2)n(Cc2ccc(C)cc2)c1=O` [Compound I-1331]: the IC50 is 56 nM.
Same read-out and setting: the same measure for `COC(=O)[C@@H](C)Cn1c(=O)[nH]/c(=N\c2ccc(OC3CCC3)cc2)n(Cc2ccc(C)cc2)c1=O` [Compound I-1217]: 5 nM.
On the same count and under the same terms, the same measure for `Cc1ccc(Cn2c(=O)n(CCC(=O)O)c(=O)[nH]/c2=N\c2cccc(C(F)(F)F)c2F)cc1` [Compound I-2086]: 234 nM.
Turning to `CCOC(=O)CCn1c(=O)[nH]/c(=N\c2ccc(CC(C)C)c(OC)c2)n(Cc2ccc(Cl)cc2)c1=O` [Compound I-1308], the IC50 was 29 nM.
The same measure, in the same setting: the same measure for `CCOC(=O)CCn1c(=O)[nH]/c(=N\c2ccc(OC(C)C)c(C3CC3)c2)n(Cc2ccc(C)cc2)c1=O` [Compound I-1300]: 18 nM; for `CNC(=O)Cn1c(=O)[nH]/c(=N\c2ccc(OCC3CC3)cc2)n(Cc2ccc(Cl)cc2)c1=O` [Compound I-1942]: 49 nM; for `CCOC(=O)CCn1c(=O)[nH]/c(=N\c2ccc(OC3CCC3)cc2)n(Cc2ccc(Cl)cc2)c1=O` [Compound I-1283]: 4 nM.
As to `CCn1c(=O)[nH]/c(=N\c2ccc(Oc3ccnc(NC(C)=O)c3)cc2)n(Cc2ccc(Cl)cc2)c1=O` [Compound I-2216], the IC50 stood at 5 nM.
As to `O=C(O)c1cncc(Oc2ccc(/N=c3\[nH]c(=O)n(CC(F)F)c(=O)n3Cc3ccc(Cl)cc3)cc2)c1` [Compound I-2215], the IC50 amounted to 6 nM.
On to `CCn1c(=O)[nH]/c(=N\c2ccc(Oc3ccnc(C(=O)NC)c3)cc2)n(Cc2ccc(F)cc2)c1=O` [Compound I-2110], for which the IC50 was 12 nM.
Take `Cc1ccc(Cn2c(=O)n([C@H](C)[C@H](C)C(=O)O)c(=O)[nH]/c2=N\c2ccc(CC(C)C)c(Cl)c2)cc1` [Compound I-1444]: the IC50 is 4 nM.
For `COC(=O)[C@@H](C)Cn1c(=O)[nH]/c(=N\c2ccc(OC3COC3)cc2)n(Cc2ccc(C)cc2)c1=O` [Compound I-1218], the IC50 was 61 nM.
For `COCc1cc(/N=c2\[nH]c(=O)n(CC(C)(C)C(=O)O)c(=O)n2Cc2ccc(Cl)cc2)ccc1OC(C)C` [Compound I-1430], the IC50 came out at 709 nM.
The same measure, in the same setting: the same measure for `COC(=O)[C@@H](C)Cn1c(=O)[nH]/c(=N\c2ccc3nc(C)sc3c2)n(Cc2ccc(Cl)cc2)c1=O` [Compound I-1321]: 7 nM.

The same experiment, now with this note: C6BU-1 cells stably expressing human P2X3 receptor, Fluo-3 fluorescence, FDSS 3000.
Take `CCOc1ccc(/N=c2\[nH]c(=O)n(CC3(C(=O)O)CC3)c(=O)n2Cc2ccc(Cl)cc2)cc1Cl` [Compound I-0924]: the IC50 was found to be 30 nM.
Regarding `C[C@@H](Cn1c(=O)[nH]/c(=N\c2ccc(N3CCCCC3)cc2)n(Cc2ccc(Cl)cc2)c1=O)C(=O)O` [Compound I-0962], the IC50 amounted to 31 nM.
The same measure, in the same setting: the same measure for `Cc1ccc(Cn2c(=O)n(CCC(=O)NS(C)(=O)=O)c(=O)[nH]/c2=N\c2ccc(OC(C)C)c(Cl)c2)cc1` [Compound I-1874]: 13 nM.
Consider `COC(=O)[C@@H](C)Cn1c(=O)[nH]/c(=N\c2ccc(CC3CCCC3)cc2)n(Cc2ccc(C)cc2)c1=O` [Compound I-1096], for which the 50% inhibitory concentration (IC50) came to 94 nM.
Turning to `C[C@@H](C(=O)O)[C@H](C)n1c(=O)[nH]/c(=N\c2ccc3cc(Br)ccc3c2)n(Cc2ccc(Cl)cc2)c1=O` [Compound I-1832], the IC50 is 32 nM.
Still for that read-out and setting: the same measure for `CCc1oc2ccc(/N=c3\[nH]c(=O)n(CCCNC(C)=O)c(=O)n3Cc3ccc(Cl)cc3)cc2c1C` [Compound I-1568]: 10 nM.
As to `CCC[C@H](C)Oc1ccc(/N=c2\[nH]c(=O)n(CCC(=O)OCC)c(=O)n2Cc2ccc(C)cc2)cc1` [Compound I-1052], the half-maximal inhibitory concentration (IC50) turned out to be 19 nM.
Turning to `COC(=O)[C@H](C)[C@H](C)n1c(=O)[nH]/c(=N\c2ccc(OC(C)C)c(C)c2)n(Cc2ccc(C)cc2)c1=O` [Compound I-0927], the concentration for half-maximal inhibition (IC50) was 21 nM.
Take `CCc1oc2ccc(/N=c3\[nH]c(=O)n(C[C@H](O)CO)c(=O)n3Cc3ccc(Cl)cc3)cc2c1C` [Compound I-1624]: the 50% inhibitory concentration (IC50) is 8 nM.
For `CCOC(=O)C1(Cn2c(=O)[nH]/c(=N\c3ccc(OCC4CC4)c(Cl)c3)n(Cc3ccc(C)cc3)c2=O)CC1` [Compound I-0970], the IC50 was 20 nM.
Still for that read-out and setting: the same measure for `CCc1oc2ccc(/N=c3\[nH]c(=O)n(CC(C)(C)C(=O)OC)c(=O)n3Cc3ccc(Cl)cc3)cc2c1C` [Compound I-1574]: 18 nM; for `CNC(=O)c1cc(Oc2ccc(/N=c3\[nH]c(=O)n(CCO)c(=O)n3Cc3ccc(Cl)cc3)cc2)ccn1` [Compound I-1735]: 3 nM.
Turning to `O=C(O)c1cc(Oc2ccc(/N=c3\[nH]c(=O)[nH]c(=O)n3Cc3ccc(Cl)cc3)cc2)ccn1` [Compound I-1883], the 50% inhibitory concentration (IC50) was determined as 7 nM.
For the molecule `CC1CCC(Cn2c(=O)n(CCC(=O)O)c(=O)[nH]/c2=N\c2ccc(OC(C)C)c(F)c2)CC1` (stereo not drawn) [Compound I-1750], the IC50 is 21 nM.
On the same count and under the same terms, the same measure for `Cc1ccc(Cn2c(=O)n(CC(C)(C)C(=O)O)c(=O)[nH]/c2=N\c2ccc3nc(C)sc3c2)cc1` [Compound I-1577]: 7 nM.

The experiment is the same for the next values; noted with them: human P2X3 receptor, Test Example 1.
Consider `Cn1c(=O)[nH]/c(=N\c2ccc(Oc3nc(C(N)=O)cs3)cc2)n(Cc2ccc(Cl)cc2)c1=O` [Compound I-2415], for which the concentration for half-maximal inhibition (IC50) is 9 nM.
For `CCn1c(=O)[nH]/c(=N\c2ccc(Oc3cnc(C#N)nc3)cc2)n(Cc2ccc(Cl)cc2)c1=O` [Compound I-2281], the 50% inhibitory concentration (IC50) came out at 2 nM.
Turning to `COC(=O)CCn1c(=O)[nH]/c(=N\c2ccc(Oc3cccc(C#N)n3)cc2)n(Cc2ccc(Cl)cc2)c1=O` [Compound I-2666], the concentration for half-maximal inhibition (IC50) stood at 2 nM.
On to `CCOc1ccc(/N=c2\[nH]c(=O)n(CCCC(=O)O)c(=O)n2Cc2ccc(C)cc2)cc1Cl` [Compound I-0874], for which the 50% inhibitory concentration (IC50) was determined as 86 nM.
On the same count and under the same terms, the same measure for `CCn1c(=O)[nH]/c(=N\c2ccc(Nc3ccncc3)cc2)n(Cc2ccc(C)cc2)c1=O` [Compound I-2569]: 162 nM.
As for `CCn1c(=O)[nH]/c(=N\c2ccc(Oc3ccnc(C#N)n3)cc2)n(Cc2ccc(Cl)cc2)c1=O` [Compound I-2310], the IC50 was 5 nM.
The same measure, in the same setting: the same measure for `O=c1[nH]/c(=N\c2ccc(Oc3cccc(F)n3)cc2)n(Cc2ccc(Cl)cc2)c(=O)n1C[C@@H](O)CO` [Compound I-2525]: 10 nM; for `CCn1c(=O)[nH]/c(=N\c2ccc(Oc3cccc(Cl)n3)cc2)n(Cc2ccc(Cl)cc2)c1=O` [Compound I-2441]: 10 nM; for `Cn1c(=O)[nH]/c(=N\c2ccc(Oc3cccc(C(N)=O)n3)cc2)n(Cc2ccc(Cl)cc2)c1=O` [Compound I-2274]: 5 nM.
With `CCn1c(=O)[nH]/c(=N\[C@H]2CC[C@H](Oc3ccnc(C(=O)NC)c3)CC2)n(Cc2ccc(Cl)cc2)c1=O` [Compound I-2246], the concentration for half-maximal inhibition (IC50) is 790 nM.
Regarding `CCn1c(=O)[nH]/c(=N\c2ccc(Oc3ncc(C(N)=O)s3)cc2)n(Cc2ccc(Cl)cc2)c1=O` [Compound I-2609], the concentration for half-maximal inhibition (IC50) came to 2 nM.
Same read-out and setting: the value for `Cc1nsc(Oc2ccc(/N=c3\[nH]c(=O)n(C[C@H](O)CO)c(=O)n3Cc3ccc(Cl)cc3)cc2)n1` [Compound I-2518] was 4 nM; that for `C=COc1ccc(N(C)c2nc(=O)n(C[C@H](C)C(=O)OC)c(=O)n2Cc2ccc(C)cc2)cc1Cl` [Compound I-1550] was 833 nM.
As for `O=c1[nH]/c(=N\c2ccc(Oc3cccnn3)cc2)n(Cc2ccc(Cl)cc2)c(=O)n1CC(CO)CO` [Compound I-2692], the IC50 is 8 nM.
Same read-out and setting: the value for `N#CNC(=O)Cn1c(=O)[nH]/c(=N\c2ccc(Oc3ccon3)cc2)n(Cc2ccc(Cl)cc2)c1=O` [Compound I-2604] was 21 nM; that for `O=c1[nH]/c(=N\c2ccc(Oc3cncc(F)c3)cc2)n(Cc2ccc(Cl)cc2)c(=O)n1CCO` [Compound I-2420] was 9 nM; that for `Cc1ccc(Cn2c(=O)n(C[C@H](C)C(=O)O)c(=O)[nH]/c2=N\c2ccc(Oc3ccc(O)nc3)cc2)cc1` [Compound I-1536] was 24 nM.
`Cc1nsc(Oc2ccc(/N=c3\[nH]c(=O)n(CC(C)(CO)CO)c(=O)n3Cc3ccc(F)cc3)cc2)n1` [Compound I-2571]: the IC50 was 7 nM.
As for `CCOC(=O)CCn1c(=O)[nH]/c(=N\c2ccc(Oc3ncccn3)cc2)n(Cc2ccc(Cl)cc2)c1=O` [Compound I-2550], the half-inhibitory concentration (IC50) was found to be 4 nM.
